Here are results for 6 compounds from ChEMBL document CHEMBL3351914, “Finding the perfect spot for fluorine: improving potency up to 40-fold during a rational fluorine scan of a Bruton's Tyrosine Kinase (BTK) inhibitor scaffold” (Bioorg Med Chem Lett, 2015).

The term IC50 denotes the concentration needed to halve the response being measured.

This assay deals with Tyrosine-protein kinase BTK (Homo sapiens, UniProt Q06187). The experiment in a line: Inhibition of BTK in human whole blood assessed as decrease in CD69 positive cells. In kind it is cell-based.
Chain of Tyrosine-protein kinase BTK (Q06187 whole entry): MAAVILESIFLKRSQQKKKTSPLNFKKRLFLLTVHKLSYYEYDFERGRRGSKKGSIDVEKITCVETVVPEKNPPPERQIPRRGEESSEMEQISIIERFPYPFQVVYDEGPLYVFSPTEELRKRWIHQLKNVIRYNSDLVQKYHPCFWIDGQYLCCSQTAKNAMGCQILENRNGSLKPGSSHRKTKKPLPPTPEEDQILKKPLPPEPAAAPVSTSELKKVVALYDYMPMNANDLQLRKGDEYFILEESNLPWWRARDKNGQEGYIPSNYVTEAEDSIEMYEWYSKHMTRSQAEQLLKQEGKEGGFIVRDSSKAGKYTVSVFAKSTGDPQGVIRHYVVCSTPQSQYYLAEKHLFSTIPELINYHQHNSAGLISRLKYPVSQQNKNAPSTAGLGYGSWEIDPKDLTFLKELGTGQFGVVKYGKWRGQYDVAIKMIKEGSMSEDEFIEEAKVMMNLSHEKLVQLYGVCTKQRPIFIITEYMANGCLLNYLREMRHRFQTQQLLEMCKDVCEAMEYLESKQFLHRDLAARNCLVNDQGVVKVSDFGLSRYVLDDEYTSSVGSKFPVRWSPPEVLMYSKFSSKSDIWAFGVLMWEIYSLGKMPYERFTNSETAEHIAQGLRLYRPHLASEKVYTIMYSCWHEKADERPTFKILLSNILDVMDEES
Take `CN(C)c1ccc2c(c1)CCN(c1cccc(-c3cc(Nc4ccc(N5CCOCC5)cn4)c(=O)n(C)c3)c1CO)C2=O`: the IC50 amounted to 190 nM.

On to `CN(C)c1ccc2c(c1)CCN(c1cc(F)cc(-c3cc(Nc4ccc(N5CCOCC5)cn4)c(=O)n(C)c3)c1CO)C2=O`, for which the IC50 worked out at 200 nM. The figure for `CNC(=O)Nc1cc(-c2ccc(F)c(N3CCc4cc(N(C)C)ccc4C3=O)c2CO)cn(C)c1=O` is 3700 nM; for `CN1CCN(c2ccc(Nc3cc(-c4cccc(N5CCc6cc(C(C)(C)C#N)ccc6C5=O)c4CO)cn(C)c3=O)nc2)CC1` it is 60 nM. The figure for `CN(C)c1ccc2c(=O)n(-c3cccc(-c4cc(Nc5ccc(C(=O)N6CCOCC6)cn5)c(=O)n(C)c4)c3CO)ccc2c1` is 280 nM; for `CCNC(=O)Nc1cc(-c2cccc(N3CCc4cc(N(C)C)ccc4C3=O)c2CO)cn(C)c1=O` it is 1600 nM.
